The record followed here is ChEMBL document CHEMBL4706515, “Discovery of new [1,2,4] Triazolo[1,5-a]Pyrimidine derivatives that Kill gastric cancer cells via the mitochondria pathway” (Eur J Med Chem, 2020).

The subject of experiment [1] is MGC-803. Description: Cell cycle arrest in human MGC-803 cells assessed as accumulation of cells in G2/M phase at 10 uM measured after 24 hrs by PI staining based flow cytometry. Type of experiment: functional. On the technique in general: A flow cytometer gives signals particle by particle.
Experiment [2] has as its system SGC-7901. Description: Induction of apoptosis in human SGC-7901 cells assessed as early apoptotic cells at 10 uM measure after 24 hrs by Annexin-PI staining based Flowcytometry method (reference value: 2.68%). The experiment is classed as functional.
The subject of experiment [3] is MGC-803. Description: Induction of apoptosis in human MGC-803 cells assessed as accumulation of cleaved PARP protein at 0.625 to 10 uM measured after 24 hrs by western blot assay. As to conditions: dose 0.625-10 µM. The experiment is classed as functional, cell-based. In general terms: In western blotting, separated proteins are transferred to a membrane and probed.

The test system of experiment [4] is MGC-803. Description: Induction of apoptosis in human MGC-803 cells assessed as necrotic cells at 2.5 uM measure after 24 hrs by Annexin-PI staining based Flowcytometry method (reference value: 3.13%). Type of experiment: functional.
Experiment [5] deals with SGC-7901. Briefly: Induction of apoptosis in human SGC-7901 cells assessed as viable cells at 10 uM measure after 24 hrs by Annexin-PI staining based Flowcytometry method (reference value: 94.9%). As to conditions: read-out: Activity. The experiment is classed as functional.
Experiment [6] has as its system MGC-803. Briefly: Antiproliferative activity against human MGC-803 cells assessed as inhibition of cell growth at 10 uM measured after 72 hrs by SRB assay relative to control. Type of experiment: functional.
The next experiment concerns HGC-27. Description: Antiproliferative activity against human HGC-27 cells assessed as inhibition of cell growth at measured after 72 hrs by SRB assay. The experiment is classed as functional.
Experiment [7] deals with SGC-7901. Description: Induction of apoptosis in human SGC-7901 cells assessed as viable cells at 5 uM measure after 24 hrs by Annexin-PI staining based Flowcytometry method (reference value: 94.9%). The experiment is classed as functional. Conditions: read-out: Activity.
Experiment [8] relates to MGC-803. Description: Induction of apoptosis in human MGC-803 cells assessed as increase in ROS production preincubated for 1 hr with NAC followed by compound addition at 2.5 uM measured after 24 hrs by DCHF-DA staining based Flowcytometry method. Type of experiment: functional, cell-based.
For experiment [9], the system named is MGC-803. Description: Induction of apoptosis in human MGC-803 cells assessed as increase in accumulation of cleaved PARP measured after 24 hrs by western blot assay. The experiment is classed as functional, cell-based.

The structures appear in SMILES notation. The source made the active and inactive calls. No cut-off for these calls is given here.

For `Cc1cc(Nc2ccc(C(=O)/C=C/c3cccc(Br)n3)cc2)n2nc(SCc3nc4ccccc4[nH]3)nc2n1`, the outcome with MGC-803 [1], in the experiment with MGC-803 [3] and in the experiment on MGC-803 [9] was Active. Besides, the Activity with SGC-7901 [2] is reported as 8.54%; in the experiment on MGC-803 [4] it was 1.75%. In addition, the viability at 10 µM in the experiment with SGC-7901 [5] is 23.9%. Besides, the inhibition at 10 µM with MGC-803 [6] was found to be 94.4%. Also, the GI50 with HGC-27 is 640 nM. Besides, the viability at 5 µM with SGC-7901 [7] came to 53%. In the experiment with MGC-803 [8], the result was inactive.

What is called inhibition is the relative decrease from the control value, in per cent. By GI50 is commonly meant the concentration that inhibits growth by half.
